This note sets out measurements from article PMC7940618, “Specific inhibition of the Survivin–CRM1 interaction by peptide-modified molecular tweezers” (Nature Communications, 2021).

Holding throughout (type): binding
For test [1], the target named is T1, GST-Survivin120-K90/103T–CRM1 interaction (Homo sapiens, UniProt O15392, K103T/K90T).
T1 construct: the only published NMR structure originated from a truncated Survivin (aa 1-120) with improved solubility; made in house; host or cells: Escherichia coli soluBL21
T1 sequence (O15392 1-120 K90T/K103T): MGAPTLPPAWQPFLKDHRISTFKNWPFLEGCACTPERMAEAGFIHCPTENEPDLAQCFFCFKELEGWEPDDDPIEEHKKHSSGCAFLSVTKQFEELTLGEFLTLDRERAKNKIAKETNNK
The test is described as follows: Pull-down with GST-Survivin120-K90/103T bait, CRM1 and RanQ69L. The conditions noted are these: for CRM1: Peak area determined with ImageJ / CRM1 intensity_normalised on GST-Surv intensity (samples 1-14) / CRM1: Control w/o GST-Survivin subtracted (sample 16 or 23): CRM1 band; for CRM1: Peak area determined with ImageJ / CRM1 intensity_normalised on GST-Surv intensity (samples 1-14) / CRM1: Control w/o GST-Survivin subtracted (sample 16 or 23) / CRM1 intensity_normalised on GST-Surv intensity (samples 1-14) and CRM1 intensity w/o incubation (sample 15 or 22): samples 22-28 (K90/103T); for CRM1: Control w/o GST-Survivin subtracted (sample 16 or 23): sample 23 subtracted; for GST-Surv: Peak area determined with ImageJ / GST-Surv: Control w/o GST-Survivin subtracted (sample 2 or 9): GST-Surv bait band; for GST-Surv: Peak area determined with ImageJ: samples 8-14 (K90/103T according to the summary in r39-r41); for GST-Surv: Control w/o GST-Survivin subtracted (sample 2 or 9): samples 8-14 (K90/103T), sample 9 subtracted; for Normalised CRM1 intensity, summary of replicates I and II: K90/103T, w/o tweezer = 100, replicates I and II. How it is done: (§1) Next, we investigated whether tweezer inhibition of the export complex assembly is compromised upon lysine mutations near the NES. Therefore, pull-down experiments were performed with recombinant GST-tagged Survivin120 wildtype and K90/103T as bait proteins, tweezers, recombinant CRM1 and RanQ69L (Fig. 7g). Controls lacking the Survivin baits were included, as well as isolated peptides without tweezer (Fig. 7h). […] However, for the double lysine mutant GST-Survivin120-K90/103T even the tweezer conjugates lost most of their inhibitory power toward the essential Survivin–CRM1 interaction.
(§2) All pull-down assays were performed at room temperature in pull-down buffer (PBS, pH 7.4, 1 mM DTT, 0.02 Triton X-100). GST fusion proteins were immobilized on 50 μL GSH-coated Sepharose 4B beads from GE Healthcare. The beads were prior equilibrated and blocked with 500 μL pull-down blocking buffer (PBS, pH 7.4, 1 (w/v) BSA, 1 mM DTT, 0.02 (v/v) Triton X-100) for 1 h to prevent unspecific binding.
(§3) For analysis of the effective inhibitory tweezer concentration, 200 μg 293T lysate with overexpressed Survivin142-HA was preincubated without ligand or with different concentrations (10 nM to 200 μM) of unmodified tweezer TW, TW-ELTL, TW-ELTLGEFL, or TW-LFEEGLLT for 1 h and then mixed with 35 μg GST-CRM1, 55 μg RanQ69L, and 2 mM dGTP. GSH-beads were incubated with this protein mixture for 2 h under rotation. For analysis of tweezer specificity, 40 μg GST-Survivin120 or GST-Survivin120-K90/103T point mutant was pre-bound to equilibrated GSH-beads in 500 μL pull-down buffer, containing additionally either no ligand or 50 μM unmodified tweezer TW, TW-ELTL, TW-ELTLGEFL, or peptides ELTL and ELTLGEFL, for 1 h under rotation. After washing and blocking, GSH-beads were incubated with a protein mixture consisting of 2 mM dGTP, 50 μg CRM1, and 50 μg RanQ69L for 2 h under rotation.
(§4) Samples of input and beads taken during pull-down experiments were ran on 12.5 SDS gels and transferred onto 0.2 µM PVDF membranes (Amersham Hybond P 0.2) using a PerfectBlue™ tank electro blotter (Peqlab) at 350 mA for 150 min. Membranes were blocked for 1 h using 5% milk powder in TBS buffer containing 0.1% Tween-20. Next, membranes were incubated in primary antibodies against HA (anti-HA, mouse monoclonal, BioLegend, Covance MMS-101R, 1:1,000), GST (anti-GST, mouse monoclonal, Santa Cruz Biotechnology Inc., sc-57753, 1:1000) or CRM1 (anti-CRM1, rabbit polyclonal, Novus Biologicals Ltd., NB100-79802, 1:10,000) overnight at 4 °C. Secondary horseradish peroxidase (HRP)-conjugated antibody (anti-mouse IgG-HRP, sheep, GE Healthcare, NXA931 or anti-rabbit IgG-HRP, donkey, GE Healthcare, NA934) was then added (1:10,000) for 1 h at room temperature. Chemiluminescence was detected and imaged using the Pierce ECL Plus Western Blotting Substrate kit (Thermo Fisher Scientific) and Chemidoc system (Bio-Rad) or film processor Cawomat 2000 IR (CAWO). Western blots were analyzed by densitometric analysis with ImageJ version 1.52p (U.S. National Institutes of Health), measuring the mean gray intensity of protein bands. Uncropped and unprocessed scans of western blots are deposited in the Source Data file.

Test [2] concerns the target T2, GST-Survivin120–CRM1 interaction (Homo sapiens, UniProt O15392).
T2 construct: the only published NMR structure originated from a truncated Survivin (aa 1-120) with improved solubility; made in house; host or cells: Escherichia coli soluBL21
Put plainly: Pull-down with GST-Survivin120 wildtype bait, CRM1 and RanQ69L. The conditions noted are these: for CRM1: Peak area determined with ImageJ / CRM1 intensity_normalised on GST-Surv intensity (samples 1-14) / CRM1: Control w/o GST-Survivin subtracted (sample 16 or 23): CRM1 band; for CRM1: Peak area determined with ImageJ / CRM1 intensity_normalised on GST-Surv intensity (samples 1-14) / CRM1: Control w/o GST-Survivin subtracted (sample 16 or 23) / CRM1 intensity_normalised on GST-Surv intensity (samples 1-14) and CRM1 intensity w/o incubation (sample 15 or 22): samples 15-21 (WT); for CRM1: Control w/o GST-Survivin subtracted (sample 16 or 23): sample 16 subtracted; for GST-Surv: Peak area determined with ImageJ / GST-Surv: Control w/o GST-Survivin subtracted (sample 2 or 9): GST-Surv bait band; for GST-Surv: Peak area determined with ImageJ: samples 1-7 (WT according to the summary in r39-r41); for GST-Surv: Control w/o GST-Survivin subtracted (sample 2 or 9): samples 1-7 (WT), sample 2 subtracted; for Normalised CRM1 intensity, summary of replicates I and II: WT, w/o tweezer = 100, replicates I and II. How it is done: as §1, §2, §3, §4

Test [3] concerns the target T3, Survivin120 (Homo sapiens, UniProt O15392).
T3 construct: the only published NMR structure originated from a truncated Survivin (aa 1-120) with improved solubility; GST with PreScission site (N); made in house; host or cells: Escherichia coli soluBL21
The test is described as follows: ITC titration of tweezers with Survivin120 wildtype. The conditions noted are these: ITC, Survivin120 WT; for Kd: PBS pH 7.4, 25 °C, one set of sites model, mean ± SEM of fit. How it is done:
The interaction between the tweezers and Survivin was studied by isothermal titration calorimetry (ITC) and NMR spectroscopy. So far, the only published NMR structure originated from a truncated Survivin (aa 1-120) with improved solubility. […] Since the truncated construct still contains all relevant parts of the protein and gives excellent NMR spectra (SI5), we chose it for all our in vitro experiments and denote it as Survivin120 in the following results.
ITC was performed with a MicroCal iTC200 from Malvern Panalytical in PBS, pH 7.4 at 25 °C with molecular tweezers in the cell and Survivin120 in the titration syringe. The protein was dialyzed overnight at 4 °C against the PBS buffer. Ligands were dissolved in the respective dialysis buffer. Then, 300 µM TW were titrated with 300 µM Survivin120 WT or 321 µM Survivin120 K90/103T. Then, 100 µM TW-ELTL, TW-ELTLGEFL, or TW-LFEEGLLT was titrated with 1.2 mM Survivin120 WT or 2.5 mM Survivin120 K90/103T. For reverse titrations, either 33.3 or 34.4 µM Survivin120 in the cell was titrated with 5 mM TW or TW-ELTL in the syringe, respectively. All titrations were performed in PBS, pH 7.4 at 25 °C. Then, 1.5 μL injections were used with 120 s spacing time between injections. The injection rate was set to 0.5 µL/s and the reference power was 5 µcal/s. ITC thermograms were fitted to a one set of sites model with the software Origin (v7.0552) provided with the instrument. Heat of dilution was subtracted as constant from each data point.
ITC thermograms were fitted to a one set of sites model with the software Origin provided with the instrument. Heat of dilution was subtracted as constant from each data point. From three independent experiments (n = 3), one representative example was depicted, and thermodynamic data were derived thereof. For pull-down experiments, only the representative quantification of the depicted western blot is shown. […] Fluorescence anisotropy graphs were generated with GraphPad Prism 5.0. Depicted error bars represent the standard deviation of three independent titrations.

Setting [4] is: fraction of sample 22 (w/o tweezer).
Where [5] appears, read: fraction of sample 15 (w/o Tweezer).

Values joined by “and” are separate entries in the source; they are usually repeats but may differ in a detail not shown here. Equal entries are not always repeated. Peptide text beside a SMILES is read from it.

T3 sequence (O15392 1-120): as the sequence (O15392 1-120 K90T/K103T) above, with T90K, T103K counted along it
T2 sequence (O15392 1-120): as the sequence (O15392 1-120 K90T/K103T) above, with T90K, T103K counted along it

On to `O=P(O)(O)Oc1c2c(c(OP(=O)(O)O)c3c1C1CC3c3cc4c(cc31)C1CC4c3ccccc31)C1CC2c2cc3c(cc21)C1CC3c2ccccc21` [TW, reference compound], for which, in test [1], the “CRM1: Peak area determined with ImageJ” value was 39038.4, the “CRM1 intensity_normalised on GST-Surv intensity (samples 1-14)” value is 0.5728, the “CRM1: Control w/o GST-Survivin subtracted (sample 16 or 23)” value (from here on “CRM1 … (sample 16 or 23)”) is listed as 34329.1 and the “GST-Surv: Peak area determined with ImageJ” value (shortened to “GST-Surv: Peak area”) is 62533.1. Also, in test [1], the “GST-Surv: Control w/o GST-Survivin subtracted (sample 2 or 9)” value (shortened to “GST-Surv … (sample 2 or 9)”) is given as 59934; the “Normalised CRM1 intensity, summary of replicates I and II” value (from here on “Normalised CRM1 intensity, summary”) is listed as 90.4067%. Also, the “CRM1 intensity_normalised on GST-Surv intensity (samples 1-14) and CRM1 intensity w/o incubation (sample 15 or 22)” value (“CRM1 intensity_normalised … (sample 15 or 22)” for short) in test [1] (setting [4]) is given as 0.9041. Further, the “CRM1 intensity_normalised … (sample 15 or 22)” value in test [1] (w/o tweezer = 100) is given as 90.4067%. In test [2], the “CRM1: Peak area determined with ImageJ” value stood at 21154.6, the “CRM1 intensity_normalised on GST-Surv intensity (samples 1-14)” value came out at 0.3073, the “CRM1 … (sample 16 or 23)” value worked out at 16296.9 and the “GST-Surv: Peak area” value worked out at 53864.7. In test [2], the “GST-Surv … (sample 2 or 9)” value is given as 53029.3; the “Normalised CRM1 intensity, summary” value is 86.9559% and 97.9595%. Further, the “inhibition of the interaction between CRM1 and GST-Survivin120” value in test [2] (pull-down, 50 µM ligand, wildtype) was “inactive”. For the same compound, the “CRM1 intensity_normalised … (sample 15 or 22)” value in test [2] (setting [5]) is 0.8696. In addition, the “CRM1 intensity_normalised … (sample 15 or 22)” value in test [2] (w/o Tweezer = 100) came to 86.9559%. In test [3], the “-TΔS” value is listed as -4.7 kcal, the ΔG is recorded as -6.0 kcal, the ΔH is given as -1.3 kcal and the Kd turned out to be 38 µM.
With `CC(C)C[C@H](NC(=O)[C@H](Cc1ccccc1)NC(=O)[C@H](CCC(=O)O)NC(=O)CNC(=O)[C@H](CC(C)C)NC(=O)[C@@H](NC(=O)[C@H](CC(C)C)NC(=O)[C@H](CCC(=O)O)NC(=O)Cn1cc(CCOP(=O)(O)Oc2c3c(c(OP(=O)(O)O)c4c2C2CC4c4cc5c(cc42)C2CC5c4ccccc42)C2CC3c3cc4c(cc32)C2CC4c3ccccc32)nn1)[C@@H](C)O)C(=O)O` [TW-ELTLGEFL] (HELM PEPTIDE1{[O=C(Cn1cc(CCOP(=O)(O)Oc2c3c(c(OP(=O)(O)O)c4c2C2CC4c4cc5c(cc42)C2CC5c4ccccc42)C2CC3c3cc4c(cc32)C2CC4c3ccccc32)nn1)[*:2]].E.L.T.L.G.E.F.L}$$$$V2.0), the “Normalised CRM1 intensity, summary” value in test [1] is 109.825% and 111.087%; in test [2], 18.4722% and 35.2764%. Besides, the “CRM1 intensity_normalised … (sample 15 or 22)” value is recorded as 109.825% in test [1] (w/o tweezer = 100) and 18.4722% in test [2] (w/o Tweezer = 100). In test [3], the Kd was 19 µM.
With `CC(C)C[C@H](NC(=O)[C@@H](NC(=O)[C@H](CC(C)C)NC(=O)[C@H](CCC(=O)O)NC(=O)Cn1cc(CCOP(=O)(O)Oc2c3c(c(OP(=O)(O)O)c4c2[C@H]2C[C@@H]4c4cc5c(cc42)[C@H]2C[C@@H]5c4ccccc42)[C@H]2C[C@@H]3c3cc4c(cc32)[C@H]2C[C@@H]4c3ccccc32)nn1)[C@@H](C)O)C(=O)O` [TW-ELTL], in test [1], the “CRM1: Peak area determined with ImageJ” value was found to be 11197.5, the “CRM1 intensity_normalised on GST-Surv intensity (samples 1-14)” value came out at 0.3807, the “CRM1 … (sample 16 or 23)” value turned out to be 6488.31 and the “GST-Surv: Peak area” value was found to be 19643.8. In test [1], the “GST-Surv … (sample 2 or 9)” value was 17044.7; the “Normalised CRM1 intensity, summary” value was determined as 60.0833%. For the same compound, the “CRM1 intensity_normalised … (sample 15 or 22)” value in test [1] (setting [4]) came to 0.6008. The “CRM1 intensity_normalised … (sample 15 or 22)” value in test [1] (w/o tweezer = 100) came out at 60.0833%. In test [2], the “CRM1: Peak area determined with ImageJ” value stood at 4951.05, the “CRM1 intensity_normalised on GST-Surv intensity (samples 1-14)” value is 0.007388, the “CRM1 … (sample 16 or 23)” value turned out to be 93.343 and the “GST-Surv: Peak area” value is 13469.9. Further, in test [2], the “GST-Surv … (sample 2 or 9)” value came out at 12634.6; the “Normalised CRM1 intensity, summary” value is 2.09% and 27.3879%. Further, in test [2] (setting [5]), the “CRM1 intensity_normalised … (sample 15 or 22)” value is recorded as 0.0209. Besides, the “CRM1 intensity_normalised … (sample 15 or 22)” value in test [2] (w/o Tweezer = 100) came to 2.09%. Moreover, in test [3], the “-TΔS” value is given as -3.8 kcal, the ΔG was -6.3 kcal, the ΔH is -2.5 kcal and the Kd was 24 µM.
